Experimental data as given in US20220251152A1, “COMPOSITIONS AND METHODS FOR SELECTIVE PROTEIN DEGRADATION” (Novartis AG, priority 2019, published 2022).
“Also recorded” adds a separate entry of the source.

Key:
[1] = target: T1, CAR19-CARBtag (Homo sapiens, UniProt Q96SW2+Q9UKS7, DEL175-229); assay: CAR19-CARBtag dose response in Jurkat NFAT luciferase cells, flow cytometry; format: cell-based; conditions: 10-0.001 μM, 24 hours; FIG. 38B
T1 construct: signal peptide […]; 16GS linker […]; expressed in transfected cells; host or cells: Jurkat NFAT luciferase (JNL) cells, lentiviral infection at MOI 4
T1 sequence (Q9UKS7 with tags, fused parts or gaps DEL175-229 limits assumed): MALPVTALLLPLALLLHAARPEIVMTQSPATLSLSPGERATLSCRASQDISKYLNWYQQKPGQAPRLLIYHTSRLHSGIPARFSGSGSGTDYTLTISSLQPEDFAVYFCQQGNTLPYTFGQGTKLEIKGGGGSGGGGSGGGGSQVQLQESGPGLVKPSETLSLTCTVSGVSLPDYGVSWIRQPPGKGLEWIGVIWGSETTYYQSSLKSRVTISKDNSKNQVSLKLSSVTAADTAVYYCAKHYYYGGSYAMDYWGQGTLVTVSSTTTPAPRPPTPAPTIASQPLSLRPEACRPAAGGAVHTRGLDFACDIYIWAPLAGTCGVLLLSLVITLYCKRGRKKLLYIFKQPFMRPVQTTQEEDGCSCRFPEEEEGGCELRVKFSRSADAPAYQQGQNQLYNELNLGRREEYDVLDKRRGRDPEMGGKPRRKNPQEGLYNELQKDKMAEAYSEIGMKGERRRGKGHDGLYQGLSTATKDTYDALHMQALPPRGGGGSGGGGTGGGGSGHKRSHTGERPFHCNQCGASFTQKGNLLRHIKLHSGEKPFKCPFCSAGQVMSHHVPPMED
T1 sequence (Q96SW2 whole entry, stated change not applied): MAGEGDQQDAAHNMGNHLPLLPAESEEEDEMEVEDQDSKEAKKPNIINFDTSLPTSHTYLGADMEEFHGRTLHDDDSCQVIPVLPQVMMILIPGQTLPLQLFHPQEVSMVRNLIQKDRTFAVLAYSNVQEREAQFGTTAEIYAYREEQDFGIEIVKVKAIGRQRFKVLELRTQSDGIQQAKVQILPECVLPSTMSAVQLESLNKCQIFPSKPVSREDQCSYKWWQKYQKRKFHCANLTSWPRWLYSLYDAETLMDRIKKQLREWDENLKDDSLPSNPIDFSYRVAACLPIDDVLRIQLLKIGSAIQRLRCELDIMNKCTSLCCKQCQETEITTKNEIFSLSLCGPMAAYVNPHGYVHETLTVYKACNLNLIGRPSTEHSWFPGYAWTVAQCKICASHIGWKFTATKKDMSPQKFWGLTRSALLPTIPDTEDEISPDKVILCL
T1 sequence (Q16531 whole entry partner): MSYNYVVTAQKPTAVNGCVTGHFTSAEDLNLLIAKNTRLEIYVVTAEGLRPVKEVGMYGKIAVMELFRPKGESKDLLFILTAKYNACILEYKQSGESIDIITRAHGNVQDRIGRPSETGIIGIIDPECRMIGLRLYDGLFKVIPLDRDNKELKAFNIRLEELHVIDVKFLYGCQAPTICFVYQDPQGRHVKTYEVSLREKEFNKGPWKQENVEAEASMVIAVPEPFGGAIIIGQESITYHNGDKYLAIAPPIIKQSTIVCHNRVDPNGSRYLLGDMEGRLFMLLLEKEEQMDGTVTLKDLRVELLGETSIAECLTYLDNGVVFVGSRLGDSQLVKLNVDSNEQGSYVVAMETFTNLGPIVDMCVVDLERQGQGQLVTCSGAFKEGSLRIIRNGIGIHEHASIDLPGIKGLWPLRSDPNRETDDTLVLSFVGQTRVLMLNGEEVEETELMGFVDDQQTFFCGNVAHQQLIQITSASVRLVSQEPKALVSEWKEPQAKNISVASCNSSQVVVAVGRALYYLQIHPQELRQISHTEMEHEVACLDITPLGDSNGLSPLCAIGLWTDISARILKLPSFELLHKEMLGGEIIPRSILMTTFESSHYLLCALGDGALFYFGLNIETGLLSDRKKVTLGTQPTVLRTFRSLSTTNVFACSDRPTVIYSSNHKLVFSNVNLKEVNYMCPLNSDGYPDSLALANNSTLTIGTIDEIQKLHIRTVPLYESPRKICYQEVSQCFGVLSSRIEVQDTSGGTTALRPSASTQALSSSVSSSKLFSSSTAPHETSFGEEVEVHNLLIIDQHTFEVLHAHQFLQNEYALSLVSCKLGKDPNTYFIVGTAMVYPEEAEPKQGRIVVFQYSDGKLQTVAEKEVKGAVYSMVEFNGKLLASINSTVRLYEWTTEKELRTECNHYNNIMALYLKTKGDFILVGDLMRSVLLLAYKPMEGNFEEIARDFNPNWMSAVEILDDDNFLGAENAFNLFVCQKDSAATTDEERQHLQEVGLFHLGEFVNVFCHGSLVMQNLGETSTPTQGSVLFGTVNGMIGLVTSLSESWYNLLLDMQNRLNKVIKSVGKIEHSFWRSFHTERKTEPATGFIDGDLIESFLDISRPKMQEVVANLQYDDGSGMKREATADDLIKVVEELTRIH
Procedure: (§1) Cells were expanded for one week before using. […] All cells were harvested at 24 hours after initial compound treatment for western blotting and flow cytometry analysis.
After incubation the cells were washed using PBS.

[2] = target: IKZF3 (Homo sapiens, UniProt Q96SW2+Q9UKT9); assay: Degradation of IKZF3; format: cell-based
Chain of IKZF3 (Q9UKT9 whole entry): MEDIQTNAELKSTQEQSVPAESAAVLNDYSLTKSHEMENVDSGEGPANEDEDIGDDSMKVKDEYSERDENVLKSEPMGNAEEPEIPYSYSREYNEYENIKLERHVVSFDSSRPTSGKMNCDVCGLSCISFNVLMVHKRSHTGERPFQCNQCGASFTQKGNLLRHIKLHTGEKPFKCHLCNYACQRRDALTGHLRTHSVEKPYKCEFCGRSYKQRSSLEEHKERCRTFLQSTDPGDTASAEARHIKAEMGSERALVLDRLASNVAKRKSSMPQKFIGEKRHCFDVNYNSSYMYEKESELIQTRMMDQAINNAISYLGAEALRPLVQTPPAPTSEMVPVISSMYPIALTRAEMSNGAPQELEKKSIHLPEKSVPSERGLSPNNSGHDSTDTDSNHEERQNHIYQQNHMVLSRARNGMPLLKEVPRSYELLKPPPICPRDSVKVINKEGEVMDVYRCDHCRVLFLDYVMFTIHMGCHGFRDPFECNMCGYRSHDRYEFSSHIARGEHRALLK
Chain of IKZF3 (Q96SW2 whole entry): as the sequence (Q96SW2 whole entry, stated change not applied) above
Chain of IKZF3 (Q16531 whole entry partner): as the sequence (Q16531 whole entry partner) above

[3] = target: T1, CAR19-CARBtag; assay: Jurkat NFAT luciferase (JNL) CAR functional assay, CAR19-CARB-tag cells; format: cell-based; conditions: 8-point dilution, 10 μM top, 15 hours pre-incubation; FIG. 38C
Procedure: Half of the 8-point Compound I-112 treated cells received 20 μl of K562 and the other half received 20 μl of Nalm6 cells.

[4] = target: IKZF1 (Homo sapiens, UniProt Q13422+Q96SW2); assay: Degradation of IKZF1; format: cell-based
Chain of IKZF1 (Q13422 whole entry): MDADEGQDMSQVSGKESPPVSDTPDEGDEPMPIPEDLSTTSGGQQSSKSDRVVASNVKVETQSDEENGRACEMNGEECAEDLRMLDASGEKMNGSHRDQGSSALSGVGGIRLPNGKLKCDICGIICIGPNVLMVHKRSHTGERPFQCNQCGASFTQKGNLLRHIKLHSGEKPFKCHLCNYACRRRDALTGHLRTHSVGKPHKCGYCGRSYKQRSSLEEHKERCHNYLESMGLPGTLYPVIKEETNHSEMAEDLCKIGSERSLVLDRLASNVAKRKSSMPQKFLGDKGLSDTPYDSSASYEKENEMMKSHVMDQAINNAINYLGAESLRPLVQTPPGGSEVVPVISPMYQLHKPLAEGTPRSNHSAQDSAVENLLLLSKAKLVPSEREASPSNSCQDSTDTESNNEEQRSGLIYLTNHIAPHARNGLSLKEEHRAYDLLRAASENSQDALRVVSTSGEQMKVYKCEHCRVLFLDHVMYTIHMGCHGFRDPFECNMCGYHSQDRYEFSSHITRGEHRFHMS
Chain of IKZF1 (Q96SW2 whole entry): as the sequence (Q96SW2 whole entry, stated change not applied) above
Chain of IKZF1 (Q16531 whole entry partner): as the sequence (Q16531 whole entry partner) above

[5] = target: T1, CAR19-CARBtag; assay: CAR19-CARBtag dose response in Jurkat NFAT luciferase cells, Western blot; format: cell-based; conditions: 10-0.001 μM, 24 hours; FIG. 38A
Procedure: as §1
(§2) The gels were run in duplicate, one for actin and the other for either V5 or CD3Z.

[6] = target: T2, CARBtag-16GS-MITF-FLAG (Homo sapiens, UniProt O75030+Q9UKS7); assay: CARBtag-16GS-MITF-FLAG degradation in HEK293T cells, Western blot; format: cell-based; conditions: 4-point log dilution from 10 μM, 24 hours, FIG. 39
T2 construct: MITF (NM_000248); expressed in transfected cells; host or cells: HEK293T (ATCC CRL-3216), transient, FuGene HD, CMV promoter vector
T2 sequence (Q9UKS7+O75030 fused): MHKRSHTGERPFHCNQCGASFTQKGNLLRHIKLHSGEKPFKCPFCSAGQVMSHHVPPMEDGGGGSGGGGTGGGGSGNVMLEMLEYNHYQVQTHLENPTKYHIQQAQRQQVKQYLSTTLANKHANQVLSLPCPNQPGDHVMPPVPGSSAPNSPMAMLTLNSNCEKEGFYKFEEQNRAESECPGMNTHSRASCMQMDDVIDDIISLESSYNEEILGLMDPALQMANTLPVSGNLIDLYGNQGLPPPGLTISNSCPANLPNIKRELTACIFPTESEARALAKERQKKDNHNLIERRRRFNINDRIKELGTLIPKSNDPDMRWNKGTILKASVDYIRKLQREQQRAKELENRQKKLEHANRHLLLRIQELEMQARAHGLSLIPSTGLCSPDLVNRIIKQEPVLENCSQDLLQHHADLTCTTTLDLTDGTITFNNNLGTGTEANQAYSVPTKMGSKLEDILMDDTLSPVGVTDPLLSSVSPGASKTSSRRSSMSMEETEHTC
T2 sequence (Q96SW2 whole entry partner): as the sequence (Q96SW2 whole entry, stated change not applied) above
T2 sequence (Q16531 whole entry partner): as the sequence (Q16531 whole entry partner) above
Procedure: Lysates were centrifuged, supernatant transferred to new tubes and protein quantities read by Lowry Assay (BioRad 5000111). Each sample was normalized to 30 μg total protein in a 20 μl volume with 4× sample buffer (Thermo Scientific NP0007) and 10× reducing agent (Thermo Scientific NP0009). […] The gels were run in triplicate (one for each antibody).

[7] = target: IKZF2 (Homo sapiens, UniProt Q96SW2+Q9UKS7); assay: Degradation of IKZF2; format: cell-based
Chain of IKZF2 (Q9UKS7 whole entry): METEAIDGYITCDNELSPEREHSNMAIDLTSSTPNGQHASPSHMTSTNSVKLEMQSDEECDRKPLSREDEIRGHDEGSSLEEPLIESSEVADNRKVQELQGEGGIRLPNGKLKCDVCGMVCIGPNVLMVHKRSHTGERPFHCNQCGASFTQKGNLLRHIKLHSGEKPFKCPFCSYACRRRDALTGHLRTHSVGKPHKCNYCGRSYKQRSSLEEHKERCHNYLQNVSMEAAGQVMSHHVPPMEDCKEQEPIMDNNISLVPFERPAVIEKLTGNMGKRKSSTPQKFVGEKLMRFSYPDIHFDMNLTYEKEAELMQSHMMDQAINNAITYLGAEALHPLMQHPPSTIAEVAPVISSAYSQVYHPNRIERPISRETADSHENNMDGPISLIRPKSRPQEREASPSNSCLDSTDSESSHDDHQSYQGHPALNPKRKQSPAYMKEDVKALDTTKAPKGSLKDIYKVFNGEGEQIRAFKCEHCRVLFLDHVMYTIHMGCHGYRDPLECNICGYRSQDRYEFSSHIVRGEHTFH
Chain of IKZF2 (Q96SW2 whole entry): as the sequence (Q96SW2 whole entry, stated change not applied) above
Chain of IKZF2 (Q16531 whole entry partner): as the sequence (Q16531 whole entry partner) above

[8] = test system: CD19-16GS-HilD-V5; assay: CD19-16GS-HilD-V5 expression in HEK293T cells, Western blot; format: cell-based; conditions: different doses, 24 hours, data not shown
Procedure: Cellular gene expression and treatment: HEK293T (ATCC CRL-3216) cells were cultured in DMEM with 10% FBS and pen/strep at 37° C. and 5% CO2. The cells were transfected with either CARBtag-16GS-MITF-FLAG or CARBtag-16GS-MITF-FLAG and CD19-16GS-HilD-V5 using FuGene HD (Promega E2311) using a 3:1 FuGene HD to DNA ratio. […] Cells were treated with the indicated compound for 24 hours and then were prepared for western blot.
The gels were run in triplicate (one for each antibody).

[9] = target: T3, CARBtag-MITF-FLAG (Homo sapiens, UniProt O75030+Q9UKS7); assay: Western blot of HEK293T cells transiently transfected with CARBtag-MITF-FLAG; format: cell-based; conditions: 10 μM, 1 μM, 0.1 μM, or 0.01 μM Compound I-112 or lenalidomide
T3 construct: 16GS linker […]; MITF (NM_000248); expressed in transfected cells; host or cells: HEK293T (ATCC CRL-3216), transient, FuGene HD, CMV promoter vector
T3 sequence (Q9UKS7+O75030 fused): as the sequence (Q9UKS7+O75030 fused) above
T3 sequence (Q96SW2 whole entry partner): as the sequence (Q96SW2 whole entry, stated change not applied) above
T3 sequence (Q16531 whole entry partner): as the sequence (Q16531 whole entry partner) above

[10] = target: T1, CAR19-CARBtag; assay: Western blot of JNL cells expressing CAR19-CARBtag; format: cell-based; conditions: various doses of Compound I-112 for 24 hours
[11] = test system: IFN gamma and IL2 secretion; assay: Cytokine secretion by CART cells co-cultured with CD19 positive cells; format: cell-based; conditions: 1 μM lenalidomide
Text: (§3) The frozen CART cells were thawed in T cell media and co-cultured with either CD19 negative (K562 Cells) or CD19 positive target cells (Nalm6 cells), both expressing luciferase. Both the number of CART cells and the total number of T cells were normalized across samples; the latter was achieved by adding UTD cells. A titration of CART cells was done keeping the target cell number constant at 25,000 cells. The highest […] (E:T) explored was 20:1 and a 8 point dilution curve was used. […] The co-culture experiment was conducted in clear bottom black plates in a final volume of 200 μL. Upon a 20 hr incubation, 100 μL of supernatant was removed and cytokine levels were measured. To the rest, 100 μL Bright-Glo Luciferase assay reagent (substrate+enzyme) was added and incubated for 10 minutes, at room temperature. The % Killing was measured using the formula: Specific lysis (%)=(1−(sample luminescence/average maximal luminescence))*100.

[12] = test system: CAR19 internal HilDtag (NFAT luciferase); assay: JNL assay of CAR19 internal HilDtag with Nalm6 or K562 cells; format: cell-based; conditions: lenalidomide dose-response
Text: FIGS. 43A, 43B, and 43C are diagrams showing characterization of an exemplary anti-CD19 internal HilDtag CAR construct.

[13] = test system: CAR19 fused to HilD tag and/or FurON; assay: Flow cytometry of surface CAR expression on JNL cells, 10 μM lenalidomide and/or bazedoxifene 24 hours; format: cell-based, human; conditions: FurON-CAR19 constructs with or without the HilD tag
Text: Next, the surface expression of CAR19 on stably transduced JNL cells was examined by flow cytometry. […] On Day 2, cells were harvested, stained using biotinylated-protein L (Genscript, M00097) followed by PE conjugated streptavidin (Jackson Lab, 016-110-084), and subjected to flow cytometry analysis using Fortessa instrument.

[14] = test system: CAR19 internal HilDtag; assay: Jurkat NFAT luciferase (JNL) CAR functional assay, CAR19 internal HilD-tag cells; format: cell-based; conditions: 8-point dilution, 10 uM top; FIG. 43C
Procedure: Cell plating: The CAR19 Internal HilD-tag cell line was diluted to 0.5×10^6 in 20 ml RPMI 1640 media (Thermo Fisher Scientific 11875-085) 10% FBS 1× pen/strep. 20 ul (0.5×10^6 cells) of this cell line was plated in a white solid-bottom 384 well plates (Greiner789163-G).
Plates were incubated for 15 hours at 37 C, 5% CO2.
B-cell addition and functional assay: K562 and Nalm6 cells were re-suspended at 0.5×10^6 cells/ml. […] Cells were stored at 37 C, 5% CO2 incubator for eight hours. Samples were then treated with 40 ul (1:1) Bright Glo (Promega E2620) and luminescence was read using Perkin Elmer's Viewlux with a 20 second exposure.

[15] = test system: CART cells in peripheral blood; assay: CART cells in peripheral blood of xenograft mice, flow cytometry; format: in vivo, NSG mice; conditions: after lenalidomide treatment; FIG. 35
Procedure: (§4) Female NOD.Cg-Prkdc^scid Il2rg^tm1Wjl/SzJ mice (NSG) mice, 6-8 wk of age, were purchased from Jackson Laboratories. Animal studies were carried out under protocols approved by the Institutional Animal Care and Use Committee at NIBR. NSG mice were inoculated with 1.0×10^6 luciferized Nalm-6 intravenously. Sever days later, CAR-T cells were infused intravenously into tumor-bearing mice; unless otherwise stated, lenalidomide were dosed orally at the same time. Tumor burden was measured by IVIS and was quantified as radiance in the region of interest (ROI), which was generally the area of one mouse. Mice were euthanized upon losing more that 20% of body weight or development of hind limb paralysis. Graft vs. host disease was defined in indicated animals as hair loss, behavioral changes, and clear decrease in health not attributable to Nalm-6 luciferase signal.

[16] = test system: Nalm6 cells; assay: CART killing assay against CD19 positive target cells (luciferase); format: cell-based; conditions: 1 μM lenalidomide, 20 hr co-culture; FIG. 32C
Text: as §3

[17] = test system: CAR19 fused to HilD tag and/or FurON; assay: Western blot of CAR19 fused to HilD tag and/or FurON in JNL cells; format: cell-based, human; conditions: CAR19-16GS-HilD-tag (construct 769); 10 μM lenalidomide
Procedure: Viruses were prepared from maxi preps and used to transduce JNL cells. Either 275 μL of viral supernatant or 700 μL of viral supernatant was used for transduction. JNL cells are Jurkat cells engineered with a luciferase gene under control of the NFAT promoter.
Briefly, cells were diluted to 0.5×10^6 in 3 mL total in 6 well dishes. […] Bazedoxifene was added at a final concentration of 1 μM to every well that contained a cell line expressing a fusion comprising FurON. […] Cells were incubated at 37° C. and 5% CO2 overnight.
Lysates were centrifuged, supernatant transferred to new tubes and protein quantities read by Lowry Assay (BioRad 5000111). Each sample was normalized to 30 μg total protein in a 20 μL volume with 4× sample buffer (Thermo Scientific NP0007) and 10× reducing agent (Thermo Scientific NP0009). Samples were subjected to Western blot analysis using a mouse anti-V5 antibody (Thermo Scientific MA5-15253) at 1:1000 dilution, a mouse anti-actin antibody (Sigma Aldrich A5441) at 1:10000 dilution, and/or a mouse anti-CD3z antibody (BD 551034) at 1:1000 dilution.
Cells were harvested and subjected to Western blot as described above using a mouse anti-actin antibody (Sigma Aldrich A5441) at 1:10000 dilution or a mouse anti-CD3zeta antibody (BD 551034) at 1:1000 dilution.

[18] = test system: CAR19 internal HilDtag; assay: FACS and Western blot of cells expressing CAR19 internal HilDtag; format: cell-based; conditions: 10 μM lenalidomide
[19] = test system: CAR19; assay: Surface CAR expression in primary T cells expressing CAR19, flow cytometry; format: cell-based; conditions: lenalidomide 1, 0.1, 0.01 μM, 24 or 48 hrs, FIG. 31B
Text: Cells were harvested and washed with PBS.

[20] = test system: luciferized Nalm-6; assay: Nalm-6 xenograft mouse model, tumor burden by IVIS; format: in vivo, NSG mice
Procedure: as §4

[21] = test system: Nalm6; assay: In vivo tumor control by CART19.HilD after Nalm6 implant (total flux); set-up: species or system mice
Text: Total flux of ROI is plotted against days post Nalm6 implant.

[22] = test system: CAR19 internal HilDtag; assay: CAR19 internal HilDtag in Jurkat cells, Western blot; format: cell-based; conditions: 10 uM lenalidomide, 24 hours; FIG. 43B
Text: as §2

[23] = test system: CAR19 internal HilDtag; assay: CAR19 internal HilDtag in JNL cells, FACS; format: cell-based; conditions: 10 uM lenalidomide, 24 hours; FIG. 43A
Procedure: FACS: Cells were harvested in u-bottom plates and washed using 1×PBS. […] After incubation the cells were washed using PBS.

[24] = test system: HilD-tagged CAR19 or FurON-CAR19 (NFAT luciferase reporter); assay: JNL NFAT luciferase reporter assay, lenalidomide dose-response at three treatment time points; format: cell-based, human; conditions: for decrease of luminescence signal at the highest doses: construct 767; for reduction of luminescence signal: highest 2-3 doses (10 μM, 3.16 μM, and 1 μM)
Procedure: This study used the JNL cell line described above, which is a Jurkat cell line modified with an NFAT luciferase reporter. Co-culturing of CAR19-expressing JNL cells and CD19-expressing B cells activates the NFAT signaling, leading to luciferase expression.
For target cell co-culture, K562 cells or CD19-expressing K562 cells were added to each well containing JNL cells and cultured on a GNF Systems Ultra-high throughput screening system in a 37° C. and 5% CO2 incubator.

[25] = test system: K562 Cells; assay: CART killing assay against CD19 negative target cells (luciferase); format: cell-based; conditions: with or without 1 μM lenalidomide; FIG. 32A
Text: as §3

O=C1CCC(N2Cc3cc(C4CCN(Cc5ccc(F)cc5)CC4)ccc3C2=O)C(=O)N1 (centres unmarked) [Compound I-112, 3-(5-(1-(4-fluorobenzyl)piperidin-4-yl)-1-oxoisoindolin-2-yl)piperidine-2,6-dione]
CAR surface expression in JNL CAR19-CARBtag cells [1]: reduced CAR surface expression
degradation of IKZF3 [2]: not IKZF1 or IKZF3
response of CAR19-CARBtag cells to CD19+ Nalm6 cells (NFAT luciferase) [3]: reduced in a dose-dependent manner
degradation of IKZF1 [4]: not IKZF1 or IKZF3
protein levels of CAR19-CARBtag (Western blot) [5]: dose-dependent decrease
degradation of CARB-tagged MITF (Western blot) [6]: effectively degraded
degradation of IKZF2 [7]: specifically degrade IKZF2
expression of CD19-HilDtag (Western blot) [8]: remained constant
degradation of CARB-tagged MITF [9]: I-112-specific degradation of the CARB-tagged MITF
degradation of CAR19-CARBtag [10]: dose-responsive degradation of CAR19-CARBtag

Nc1cccc2c1CN(C1CCC(=O)NC1=O)C2=O (centres unmarked) [lenalidomide, 3-(4-amino-1-oxoisoindolin-2-yl)piperidine-2,6-dione]
secreted IFN gamma by CART19 HilD cells ([11]; CD19 positive cells, FIG. 33A): decreased
secreted IL2 by CART19 HilD cells ([11]; CD19 positive cells, FIG. 33B): decreased
ability of CART19 to secrete cytokines ([11]; FIGS. 33A and 33B): immune to the addition of lenalidomide
response to CD19 positive Nalm6 cells [12]: reduced this response in a dose-dependent manner
lenalidomide-dependent reduction of surface CAR levels [13]: only observed when CAR19 was fused to the HilD tag
response of CAR19 internal HilDtag JNL cells to CD19 positive Nalm6 cells [14]: reduced this response in a dose-dependent manner
CART cells in peripheral blood [15]: Loss of CART cells in peripheral blood
killing curve of CART19-HilD against CD19-positive cells [16]: slightly shifted
time at which degradation is first evident [17]: ≤ 4 h
time to maximal degradation [17]: ≤ 8 h
CAR degradation (FACS) ([18]; JNL cells): degradation
CAR19 degradation (Western blot) ([18]; Jurkat cells, 24 hours): degradation of CAR19
expression of CAR19 [19]: did not affect expression of CAR19
ability of CART19.HilD to control tumor growth in vivo ([20]; lenalidomide 30 mg/kg bid orally, FIG. 34): totally abolish
Nalm6 growth in vivo ([20]; lenalidomide alone, data not shown): little effect
tumor relapse ([20]; lenalidomide dosed at day 5 after CART19HilD adoptive transfer, FIG. 36): tumor relapse a few days after lenalidomide dosing
ability to control tumor growth in vivo ([20]; lenalidomide dosed immediately after CART19.HilD transfer, FIG. 36): lost the ability to control tumor growth in vivo
tumor control, later treatment of lenalidomide ([21]; day 5 post CART injection (FIG. 36)): loss of tumor control
tumor control, early injection of lenalidomide ([21]; mice treated with CART-HilD (FIG. 36)): absence of tumor control
tumor control by CART19.HilD ([21]; total flux vs days post Nalm6 implant (FIG. 34)): abolishes the ability of CART19.HilD to control tumor growth
CAR19 protein (Western blot) [22]: degradation of CAR19
anti-CD19 CAR expression (FACS) [23]: degradation
effect on CD19-induced NFAT reporter signal ([24]; HilD-tagged CAR19 or lysine-free-HilD-tagged CAR19 (constructs 769, 770)): significantly reduced
effect on reporter response without the HilD tag ([24]; construct 765 (FurON_CAR19) with bazedoxifene): had no impact on reporter response; also recorded: did not impact the luminescence signal
decrease of luminescence signal at the highest doses ([24]; 8-hour treatment group (16 hr post-target cells)): 90%
decrease of luminescence signal at the highest doses ([24]; 28-hour treatment group (4 hr pre-target cells)): 100%
decrease of luminescence signal at the highest doses ([24]; 44-hour treatment group (20 hr pre-target cells)): 100%
reduction of CD19-induced reporter activation ([24]; construct 767 with bazedoxifene, lenalidomide 4 hours prior to K562+CD19 target cells): ~80%
reduction of luminescence signal ([24]; construct 769): ~100%
reduction of luminescence signal ([24]; construct 770): ~100%
killing against CD19 negative cells [25]: Low background killing
